Laboratory results taken from PMC9481151, “Discovery of new symmetrical and asymmetrical nitrile-containing 1,4-dihydropyridine derivatives as dual kinases and P-glycoprotein inhibitors: synthesis, in vitro assays, and in silico studies” (Journal of Enzyme Inhibition and Medicinal Chemistry, 2022).

Legend:
[1] = test system: HL-60(TB); test: NCI single dose (10 µM) SRB screen; assay type: cell-based, human; settings: leukaemia, 48 h
[2] = test system: A549/ATCC; test: NCI single dose (10 µM) SRB screen; assay type: cell-based, human; settings: non-small cell lung cancer, 48 h
[3] = test system: NCI-H322M; test: NCI single dose (10 µM) SRB screen; assay type: cell-based; settings: non-small cell lung cancer, 48 h
[4] = test system: SF-539; test: NCI single dose (10 µM) SRB screen; assay type: cell-based, human; settings: CNS cancer, 48 h
[5] = test system: UACC-257; test: NCI single dose (10 µM) SRB screen; assay type: cell-based, human; settings: melanoma, 48 h
[6] = test system: UACC-62; test: NCI single dose (10 µM) SRB screen; assay type: cell-based, human; settings: melanoma, 48 h
[7] = test system: OVCAR-4; test: NCI single dose (10 µM) SRB screen; assay type: cell-based, human; settings: ovarian cancer, 48 h
[8] = test system: OVCAR-8; test: NCI single dose (10 µM) SRB screen; assay type: cell-based, human; settings: ovarian cancer, 48 h
[9] = test system: A498; test: NCI single dose (10 µM) SRB screen; assay type: cell-based, human; settings: renal cancer, 48 h
[10] = test system: ACHN; test: NCI single dose (10 µM) SRB screen; assay type: cell-based, human; settings: renal cancer, 48 h
[11] = test system: CAKI-1; test: NCI single dose (10 µM) SRB screen; assay type: cell-based, human; settings: renal cancer, 48 h
[12] = test system: RXF 393; test: NCI single dose (10 µM) SRB screen; assay type: cell-based, human; settings: renal cancer, 48 h
[13] = test system: UO-31; test: NCI single dose (10 µM) SRB screen; assay type: cell-based, human; settings: renal cancer, 48 h
[14] = test system: MCF7; test: NCI single dose (10 µM) SRB screen; assay type: cell-based, human; settings: breast cancer, 48 h
[15] = test system: BT-549; test: NCI single dose (10 µM) SRB screen; assay type: cell-based, human; settings: breast cancer, 48 h
[16] = test system: Aspergillus flavus; test: Agar well diffusion method; settings: for zone of inhibition at 1000 µg/mL: Aspergillus flavus, 24 h, read-out: Diameter of inhibition zone, A. flavus; for % activity index, A. flavus: relative to clotrimazole

SMILES	GI% HL-60(TB) [1]	GI% A549/ATCC [2]	GI% NCI-H322M [3]	GI% SF-539 [4]	GI% UACC-257 [5]	GI% UACC-62 [6]	GI% OVCAR-4 [7]	GI% OVCAR-8 [8]	GI% A498 [9]	GI% ACHN [10]	GI% CAKI-1 [11]	GI% RXF 393 [12]	GI% UO-31 [13]	GI% MCF7 [14]	GI% BT-549 [15]	melting point	zone of inhibition at 1000 µg/mL [16]	% activity index, A. flavus [16]
COC(=O)C1=C(C)NC(C)=C(C(=O)OCC(C)C)C1c1cccc(C#N)c1 (racemic) [Compound 2b, (±)-3-Isobutyl 5-methyl 4-(3-cyanophenyl)-2,6-dimethyl-1,4-dihydropyridine-3,5-dicarboxylate]	18%	– (Only GI% ≥ 10 are shown)	– (Only GI% ≥ 10 are shown)	– (Only GI% ≥ 10 are shown)	– (Only GI% ≥ 10 are shown)	21%	– (Only GI% ≥ 10 are shown)	– (Only GI% ≥ 10 are shown)	– (Only GI% ≥ 10 are shown)	– (Only GI% ≥ 10 are shown)	28%	– (Only GI% ≥ 10 are shown)	11%	15%	– (Only GI% ≥ 10 are shown)	133 to 135 °C	11 mm	44%
COCCOC(=O)C1=C(C)NC(C)=C(C(=O)OC)C1c1cccc(C#N)c1 (racemic) [Compound 2d, (±)-3-(2-Methoxyethyl) 5-methyl 4-(3-cyanophenyl)-2,6-dimethyl-1,4-dihydropyridine-3,5-dicarboxylate]	– (Only GI% ≥ 10 are shown)	– (Only GI% ≥ 10 are shown)	– (Only GI% ≥ 10 are shown)	– (Only GI% ≥ 10 are shown)	– (Only GI% ≥ 10 are shown)	– (Only GI% ≥ 10 are shown)	– (Only GI% ≥ 10 are shown)	– (Only GI% ≥ 10 are shown)	12%	– (Only GI% ≥ 10 are shown)	– (Only GI% ≥ 10 are shown)	– (Only GI% ≥ 10 are shown)	– (Only GI% ≥ 10 are shown)	– (Only GI% ≥ 10 are shown)	– (Only GI% ≥ 10 are shown)	127 to 128 °C	15 mm	60%
CCOC(=O)C1=C(C)NC(C)=C(C(=O)OC(C)C)C1c1cccc(C#N)c1 (racemic) [Compound 2h, (±)-3-Ethyl 5-isopropyl 4-(3-cyanophenyl)-2,6-dimethyl-1,4-dihydropyridine-3,5-dicarboxylate]	– (Only GI% ≥ 10 are shown)	– (Only GI% ≥ 10 are shown)	– (Only GI% ≥ 10 are shown)	– (Only GI% ≥ 10 are shown)	– (Only GI% ≥ 10 are shown)	– (Only GI% ≥ 10 are shown)	– (Only GI% ≥ 10 are shown)	– (Only GI% ≥ 10 are shown)	16%	– (Only GI% ≥ 10 are shown)	15%	– (Only GI% ≥ 10 are shown)	– (Only GI% ≥ 10 are shown)	– (Only GI% ≥ 10 are shown)	– (Only GI% ≥ 10 are shown)	136 to 138 °C	12 mm	48%
COC(=O)C1=C(C)NC(C)=C(C(=O)OC)C1c1cccc(C#N)c1 [Compound 1a, Dimethyl 4-(3-cyanophenyl)-2,6-dimethyl-1,4-dihydropyridine-3,5-dicarboxylate]	– (Only GI% ≥ 10 are shown)	– (Only GI% ≥ 10 are shown)	– (Only GI% ≥ 10 are shown)	– (Only GI% ≥ 10 are shown)	– (Only GI% ≥ 10 are shown)	– (Only GI% ≥ 10 are shown)	– (Only GI% ≥ 10 are shown)	– (Only GI% ≥ 10 are shown)	– (Only GI% ≥ 10 are shown)	– (Only GI% ≥ 10 are shown)	– (Only GI% ≥ 10 are shown)	– (Only GI% ≥ 10 are shown)	– (Only GI% ≥ 10 are shown)	– (Only GI% ≥ 10 are shown)	– (Only GI% ≥ 10 are shown)	200 to 202 °C	15 mm	60%
CCOC(=O)C1=C(C)NC(C)=C(C(=O)OCC)C1c1cccc(C#N)c1 [Compound 1b, Diethyl 4-(3-cyanophenyl)-2,6-dimethyl-1,4-dihydropyridine-3,5-dicarboxylate]	13%	– (Only GI% ≥ 10 are shown)	– (Only GI% ≥ 10 are shown)	– (Only GI% ≥ 10 are shown)	– (Only GI% ≥ 10 are shown)	20%	– (Only GI% ≥ 10 are shown)	– (Only GI% ≥ 10 are shown)	– (Only GI% ≥ 10 are shown)	– (Only GI% ≥ 10 are shown)	31%	10%	13%	15%	– (Only GI% ≥ 10 are shown)	144 to 146 °C	16 mm	64%
CC1=C(C(=O)OC(C)C)C(c2cccc(C#N)c2)C(C(=O)OC(C)C)=C(C)N1 [Compound 1c, Diisopropyl 4-(3-cyanophenyl)-2,6-dimethyl-1,4-dihydropyridine-3,5-dicarboxylate]	29%	11%	– (Only GI% ≥ 10 are shown)	– (Only GI% ≥ 10 are shown)	– (Only GI% ≥ 10 are shown)	14%	– (Only GI% ≥ 10 are shown)	– (Only GI% ≥ 10 are shown)	– (Only GI% ≥ 10 are shown)	– (Only GI% ≥ 10 are shown)	19%	– (Only GI% ≥ 10 are shown)	– (Only GI% ≥ 10 are shown)	11%	– (Only GI% ≥ 10 are shown)	124 to 125 °C	13 mm	52%
